A word on the IC50: it is the concentration that gives 50% inhibition. Broadly, the CC50 is the concentration giving 50% cytotoxicity. A word on the AC50: it is the concentration giving half of the maximal activity seen. The EC50 is the midpoint of the concentration-response curve.

Calls of active or inactive are those of the source. Bounds are passed on as bounds.

These results are taken from ChEMBL document CHEMBL1201862, “PubChem BioAssay data set” (2004).

One assay addresses Large T antigen (Simian virus 40, UniProt P03070). Type of assay: functional, Betapolyomavirus macacae.
The subject of another assay is Vero. Kind of assay: cells. Type of assay: functional. The note with it: Chlorocebus sabaeus.
Assay [1] deals with FAD-linked sulfhydryl oxidase ALR (Homo sapiens, UniProt P55789). Kind of assay: ALR-catalysed DTT oxidation blockers – biochemical, H2O2 detection, luminescence, cherry-pick, dose response (AID 493248).
A short description of assay [2]: luciferase reporter signal suppression in cells – H4 neuroglioma cells, luminescence, dose response (AID 1990). Type of assay: functional, cell-based. Background: A reporter such as luciferase makes a cellular process visible.
The nature of assay [3]: cells. Type of assay: functional, cell-based.
The nature of assay [4]: Luminescence Cell-Based Dose Response HTS to Identify Inhibitors of 5'UTR Stem-Loop Driven Prion Protein mRNA Translation in H4 Neuroglioblastoma Cells. [Related pubchem assays: 1827 (Project Summary), 1813 (Primary HTS)]. Type of assay: functional.
Assay [5] in a line: alpha-synuclein stem-loop luciferase translation blockers – H4 neuroglioma cells, luminescence, confirmation (AID 1988). Type of assay: functional, cell-based.
Assay [6] is described as follows: cells. Type of assay: functional, cell-based. This is another data set of the same source.
For another assay, the target named is Cytochrome P450 2C19 (Homo sapiens, UniProt P33261). Kind of assay: Cytochrome panel assay with activity outcomes. Panel member name: p450-cyp2c19 Compounds with AC50 equal or less than 10 uM are considered active. Type of assay: functional. The note with it: read-out: AC50.
Assay [7] is described as follows: THP-1 cell cytotoxicity, dose response, cytotoxicity control for non-replicating M. tuberculosis project (AID 489025). Type of assay: functional.
The nature of assay [8]: NIH-3T3 fibroblast cytotoxicity, dose response, cytotoxicity control, cell-based, fluorescence, Alamar Blue, secondary assay (AID 2327).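 Further: NIH-3T3 mouse fibroblasts cultured with fluconazole at 8 µg/mL.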 Type of assay: functional.
For assay [9], the system named is Streptococcus sp. 'group A'. Kind of assay: Streptococcus pyogenes SK(-)GAS viability under kanamycin – luminescence, BacTiterGlo, confirmation, counter-screen for streptokinase expression inhibitor project, dose response (AID 1900). Type of assay: functional, organism-based.
The target of another assay is T1, Streptokinase A (Streptococcus pyogenes serotype M1, UniProt P10520).
T1 sequence (P10520 whole entry): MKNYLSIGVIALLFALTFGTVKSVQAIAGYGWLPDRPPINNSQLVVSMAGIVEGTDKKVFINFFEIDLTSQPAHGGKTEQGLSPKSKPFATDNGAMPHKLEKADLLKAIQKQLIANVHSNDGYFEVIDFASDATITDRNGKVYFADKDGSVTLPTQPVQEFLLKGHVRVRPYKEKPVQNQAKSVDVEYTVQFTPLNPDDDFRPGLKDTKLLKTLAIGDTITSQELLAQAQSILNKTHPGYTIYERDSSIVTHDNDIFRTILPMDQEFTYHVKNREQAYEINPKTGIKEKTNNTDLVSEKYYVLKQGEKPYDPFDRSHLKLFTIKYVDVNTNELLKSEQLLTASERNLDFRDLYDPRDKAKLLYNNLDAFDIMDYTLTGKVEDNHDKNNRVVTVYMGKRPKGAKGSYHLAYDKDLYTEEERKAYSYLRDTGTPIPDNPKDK
Kind of assay: viability-normalized secreted streptokinase activity reduction – plasminogen activation absorbance, OD405, dose response (AID 1914).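 Further: secreted streptokinase activity via plasminogen activation per viability signal from cell pellet.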 Type of assay: functional, Streptococcus pyogenes M1 GAS.

Assay [10] is described as follows: fluconazole-exposed Candida albicans growth modulators – fluorescence, retest, confirmation (AID 2467). Type of assay: functional, cell-based.
A short description of assay [11]: Trypanosoma cruzi growth suppression in host cells – NIH3T3 host cells, beta-gal luminescence, confirmation (AID 2044).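 Further: intracellular parasites grown in NIH/3T3 mouse fibroblasts as host cells; luminescent beta-galactosidase reporter signal from transgenic T. cruzi replicating inside host cells; inhibitors lower the luminescence signal.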 Type of assay: functional, cell-based.
The nature of assay [12]: NIH3T3 cell viability loss – ATP luminescence, mouse fibroblasts, counter-screen, dose response (AID 2010).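 Further: cells exposed to compound for about 90 hours before reading.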 Type of assay: functional, cell-based. (A counterscreen serves to expose hits that act by an unwanted route or on another target.)
The test system of a further assay is Streptococcus. Kind of assay: GAS UMAA2166 growth inhibition – luminescence, BacTiterGlo, counter-screen for streptokinase expression inhibitor project, dose response (AID 1915).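 Further: potency for reduction of bacterial viability or growth.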 Type of assay: functional, organism-based.
The subject of another assay is INS1. Kind of assay: INS-1E survival protection against cytokine death – cell-based, luminescence, retest, dose response (AID 449756).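 Further: cell death triggered by IL-1 beta plus TNF-alpha plus IFN-gamma mixture; protective hits raise ATP signal compared with cytokine alone wells.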 The note with it: Rattus norvegicus. Type of assay: functional.
Assay [13] is described as follows: Luminescence Cell-Based Dose Retest to Confirm Inhibitors of Cancer Stem Cells. [Related pubchem assays (depositor defined):AID2717, AID2721]. Type of assay: functional. The conditions noted are these: Homo sapiens.
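Wherever IC50 is given: Confirmatory-stage PubChem screen for compounds that inhibit SV40 T antigen.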

Sequence of FAD-linked sulfhydryl oxidase ALR (P55789 whole entry): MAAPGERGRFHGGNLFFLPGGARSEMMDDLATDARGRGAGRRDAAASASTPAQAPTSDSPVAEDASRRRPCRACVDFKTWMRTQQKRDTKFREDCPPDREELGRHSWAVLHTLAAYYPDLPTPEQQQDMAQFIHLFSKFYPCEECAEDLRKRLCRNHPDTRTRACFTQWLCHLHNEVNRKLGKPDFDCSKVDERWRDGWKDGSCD
Sequence of Cytochrome P450 2C19 (P33261 whole entry): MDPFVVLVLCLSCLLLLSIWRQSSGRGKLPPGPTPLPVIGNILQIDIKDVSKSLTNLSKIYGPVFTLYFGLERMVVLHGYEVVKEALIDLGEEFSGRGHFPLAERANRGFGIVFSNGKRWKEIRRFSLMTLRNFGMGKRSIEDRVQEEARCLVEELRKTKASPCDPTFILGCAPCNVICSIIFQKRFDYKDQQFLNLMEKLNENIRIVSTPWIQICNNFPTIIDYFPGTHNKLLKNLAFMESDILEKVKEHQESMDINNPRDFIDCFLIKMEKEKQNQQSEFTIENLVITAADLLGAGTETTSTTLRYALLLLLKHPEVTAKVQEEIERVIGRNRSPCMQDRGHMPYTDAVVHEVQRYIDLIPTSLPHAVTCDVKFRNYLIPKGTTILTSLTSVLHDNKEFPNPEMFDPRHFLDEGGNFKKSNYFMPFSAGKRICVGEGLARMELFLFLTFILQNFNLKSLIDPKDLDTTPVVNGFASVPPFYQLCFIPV
Sequence of Large T antigen (P03070 whole entry): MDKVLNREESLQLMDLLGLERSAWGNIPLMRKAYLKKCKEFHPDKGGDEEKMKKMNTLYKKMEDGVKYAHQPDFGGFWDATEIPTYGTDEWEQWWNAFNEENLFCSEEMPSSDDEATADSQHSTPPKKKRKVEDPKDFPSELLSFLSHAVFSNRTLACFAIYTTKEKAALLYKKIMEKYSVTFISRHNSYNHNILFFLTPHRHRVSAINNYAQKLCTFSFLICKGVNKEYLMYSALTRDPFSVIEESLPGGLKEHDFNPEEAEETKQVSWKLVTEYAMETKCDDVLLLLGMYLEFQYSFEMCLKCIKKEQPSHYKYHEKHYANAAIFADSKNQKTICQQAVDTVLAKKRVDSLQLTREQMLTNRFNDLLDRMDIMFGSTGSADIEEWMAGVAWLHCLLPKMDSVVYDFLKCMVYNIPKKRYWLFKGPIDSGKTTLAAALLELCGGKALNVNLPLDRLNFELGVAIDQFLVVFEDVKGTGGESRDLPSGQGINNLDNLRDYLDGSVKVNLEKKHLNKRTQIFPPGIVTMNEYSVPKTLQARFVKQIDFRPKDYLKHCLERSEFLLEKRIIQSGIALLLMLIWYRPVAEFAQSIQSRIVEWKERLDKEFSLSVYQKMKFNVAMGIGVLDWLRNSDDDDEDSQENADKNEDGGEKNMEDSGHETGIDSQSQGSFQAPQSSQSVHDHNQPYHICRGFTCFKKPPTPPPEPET

`CCOc1ccc(NCc2cccn2-c2nnc(N3CCC(C(=O)NCCCN4CC(C)CC(C)C4)CC3)s2)cc1` (centres undefined): on Large T antigen, the IC50 was 19.3 µM (active). Besides, in the assay on Vero, the CC50 was 23.9 µM (active).
As to `Nc1nonc1-n1nnc(C(=O)N/N=C/c2ccc(OCc3ccc(F)cc3)cc2)c1COc1ccccc1`, the CC50 in the assay with Vero was > 25 µM (active).
For `COc1cc(/C=N/N2CCCCC2)cc(OC)c1O`, the AC50 in [1] is 0.639 µM (active).
The same measure, in the same setting: then `Oc1cc(O)nc(SCc2ccccc2)n1`, with 2.33 µM (active).
Regarding `O=C(N/N=C\c1c(O)ccc2ccccc12)c1ccc(O)cc1`, the EC50 in assay [2] is 10 µM (active); in “cells [3]” it was 10.6 µM (active); in assay [4], 8.71 µM (active); in [5] it was 5.97 µM (active); in the assay “cells [6]”, > 350 µM (not active).
Consider `COc1cccc(-c2noc(Cn3nc(C)c([N+](=O)[O-])c3C)n2)c1`, for which the AC50 in assay [1] was 0.983 µM (active); on Cytochrome P450 2C19, 1 µM (inconclusive).
As to `O=S(=O)(c1ccc(OCC2CO2)cc1)c1ccc(OCC2CO2)cc1` (centres undefined), the CC50 in [7] was 32.2 µM (active).
As for `CC(C)NS(=O)(=O)c1ccc2c(c1)NCC2`, in assay [1], the AC50 was 5.77 µM (active).
In the case of `CCN(CC)c1ccc(/C=N/NC(=O)CNC(=O)C2COc3ccccc3O2)c(O)c1` (centres undefined), the EC50 in [8] is 5.42 µM (inconclusive); in assay [2], 0.229 µM (active); in [9], 8.15 µM (active); in “cells [3]” it was 66.6 µM (active); in assay [4], 0.646 µM (active); in assay [5], 0.311 µM (active). Moreover, the EC50 at Streptokinase A is > 150 µM (not active); in assay [10] it was 1.51 µM (active); in assay [11] it was 1.2 µM (active); in the assay “cells [6]” it was > 350 µM (not active); in assay [12] it was 4.2 µM (active); with Streptococcus it was > 150 µM (not active). In the assay with INS1, the AC50 is 1.31 µM (active).
With `COc1ccc(N2CCN(C(=O)CN(C)S(=O)(=O)c3cc(C)ccc3OC)CC2)cc1`, the EC50 in the assay “cells [3]” and in “cells [6]” was > 350 µM (not active) each time.
As for `CC(C)c1ccc(CN(C)C(=O)c2ccc(S(=O)(=O)NCc3ccco3)cc2)cc1`, the CC50 in the assay on Vero is 12.7 µM (active).
For the compound `CCC/C(=N/NC(=O)c1cccc(Cl)c1)c1ccccc1`, the EC50 in the assay “cells [3]” and in “cells [6]” was > 350 µM (not active) each time.
`CN1C(=O)C(=CNNc2ccccc2)C(=O)N(C)C1=O`: the AC50 in [13] was 2.87 µM (active); in assay [1], 0.031 µM (active).
